Laboratory results as given in paper PMC10046961, “High-Throughput Screening Assay for Detecting Drug-Induced Changes in Synchronized Neuronal Oscillations and Potential Seizure Risk Based on Ca^2+ Fluorescence Measurements in Human Induced Pluripotent Stem Cell (hiPSC)-Derived Neuronal 2D and 3D Cultures” (Cells, 2023).
Where two headings read alike, the source gives them in different places.

Columns and labels:
[1] = system: hiPSC-derived neurons co-cultured with human primary astrocytes in 2D; test: Ca2+ transient oscillation assay (FDSS), 2D co-culture; format: cell-based; settings: for effect on peak number / Ca2+ neuronal oscillations, in words: 2D format; for activation at 0.37 µM / activation at 1.11 µM / activation at 3.33 µM / activation at 10 µM: Homo sapiens, 1 h
Source text: (§1) In this study, we used cryopreserved excitatory neurons that were differentiated from human induced pluripotent stem cells (hiPSCs; Cat #: EX-SeV-CW50065) (Elixirgen Scientific, Inc., Baltimore, MD, USA). The hiPSCs used, namely, CW50065 were derived from a healthy person and distributed by the California Institute of Regenerative Medicine Human Induced Pluripotent Stem Cell Repository. Human iPSC-derived excitatory neurons were differentiated from CW50065 using a proprietary cocktail of differentiation-inducing factors called Quick-Neuron™ EX-SeV (Batch number: EX-SeV-CW50065-L; Elixirgen Scientific, Inc.), cryopreserved 3 days after differentiation induction and distributed. Human iPSC-derived excitatory neurons were recovered from cryopreservation and maintained essentially as instructed by the manufacturer.
(§2) Cryopreserved human primary astrocytes (#N7805100, Thermo Fisher Scientific, Waltham, MA, USA) were recovered as instructed by the manufacturer and seeded in a 10 cm dish at the density of 2,000,000 cells. The culture was maintained using the Human Astrocytes Kit (#N7805200, Thermo Fisher Scientific) for 12 days. Half of the culture medium was replaced with fresh medium every 2–3 days during the culture period. These astrocytes were harvested using StemPro™ Accutase™ Cell Dissociation Reagent (#A1110501, Thermo Fisher Scientific) when they reached confluency. These cells were cryopreserved in STEM-CELLBANKER® GMP grade (ZENOGEN PHARMA, Kohriyama, Fukushima Japan) at the density of 2,000,000 cells per vial as working stocks for co-culture with neurons in 2D and 3D conditions described below. After a working stock was recovered, astrocytes were directly mixed with hiPSC-derived neurons for plating without further expansion.
Live neurons (hiPSC neurons) and human primary astrocytes were recovered from cryopreservation as described above and seeded in each well of 384-well plates at the density of 10,000 cells (HiPSC-cortical neurons) and human primary astrocytes at 2500 cells (ratio 4:1). These co-cultures were maintained under the medium conditions recommended by the manufacturer, namely Medium N(G2P), to complete the differentiation of excitatory neurons for the first week. […] Half of the culture medium was replaced with fresh medium every 3–4 days during the culture period.
After the incubation, the culture medium containing Cal-520 was replaced with 50 μL of HBSS supplemented with 0.1 mM MgCl2, 2 mM CaCl2, 10 mM HEPES, and 10 mM glucose and incubated at 37 ℃ for 15 min.
(§3) Prior to the fluorescence measurements, all wells to be measured were treated with 0.04% dimethyl sulfoxide (DMSO) to stabilize the oscillation signal. The first recording started 10 min after the addition of DMSO for each plate for 20 min. The effects of the test compound were recorded again starting 60 min after the administration of compounds, for 20 min.
Twenty-five compounds (Table 1) were first dissolved in either DMSO (most compounds) or distilled water depending on the compound, and further diluted with PBS to produce stock solutions concentrated 10-fold. […] The final concentration of DMSO was adjusted to 0.1%. Changes in the fluorescence intensity (FI) produced by Ca^2+ flux were measured at 37 °C for all wells of a 384-well plate simultaneously using the FDSS/µCell system (#C13299, Hamamatsu Photonics, Hamamatsu, Shizuoka, Japan). The excitation and the emission wavelengths were 470 nm and 540 nm, respectively. The recording duration was 20 min with a sampling frequency of 2 Hz for cells cultured under 2D conditions and 10 Hz for cells cultured under 3D conditions.

[2] = system: hiPSC-derived neurons co-cultured with human primary astrocytes in 3D; test: Ca2+ transient oscillation assay (FDSS), 3D spheroids; format: cell-based; settings: for Area under the curve - 3D Mean / Peak Number—3D Mean / Peak width - 3D Mean / Peak-to-peak interval - 3D Mean: 60 min
Source text: as §1, §2
We used U-shaped-bottom 96-well plates (#174925, Thermo Fisher Scientific) without any prior coating to make a spheroid in each well. Neurons and astrocytes were seeded and maintained as described for 2D cultures, except for the following modifications. First, neurons and astrocytes were seeded in each well of the 96-well plates at the density of 8000 hiPSC neurons with 8000 human primary astrocytes (8000)/well (ratio 1:1). Second, when the differentiation of excitatory neurons was completed one week after seeding, cells were fed with BrainPhys^TM Neuronal Medium (#05793, […] Technologies, Vancouver, BC, Canada) supplemented with 2% SM1 Neuronal Supplement, 1% N2 Supplement-A, and 10% Neuron culture medium for 5 weeks.
Cells maintained as spheroids (3D) in the U-shaped-bottom 96-well plates were transferred into 384-well spheroid plates (#4516, Merck, Corning, NY, USA) with 25 µL of the culture medium. A Ca^2+-indicating dye solution including […] was prepared using the EarlyTox™ Cardiotoxicity Kit (#R8211, Molecular Devices, LLC, San Jose, CA, USA) according to the manufacturer. Then, the same volume of the dye solution was dispensed into each well.
as §3
Twenty-five compounds (Table 1) were first dissolved in either DMSO (most compounds) or distilled water depending on the compound, and further diluted with PBS to produce stock solutions concentrated 10-fold. Then, 5 μL of each compound solution was injected into each well using an automatic pipetting robot (#4505, ASSIST PLUS pipetting robot, Integra Biosciences Corp., Hudson, NH, USA), so that the final concentration of each compound was 1-fold nominal in the well.

[3] = read-out: Area under the curve - 2D Mean
[4] = read-out: Peak amplitude - 2D Mean
[5] = read-out: Peak-to-peak interval - 2D Mean
[6] = symbol, based on % changes of baseline value in the peak number, concentration in parentheses in same cell

## NC[C@H](O)c1ccc(O)c(O)c1 [norepinephrine]
[1]
  effect on peak number / Ca2+ neuronal oscillations, in words: significantly reduced peak number

## CN1CCc2cc3c(cc2[C@H]1[C@@H]1OC(=O)c2c1ccc1c2OCO1)OCO3 [Bicuculline]
[1]
  effect on peak number / Ca2+ neuronal oscillations, in words: significantly reduced peak number
[1]; [3]
  activation at 0.37 µM: 15.8%
  activation at 1.11 µM: 39.6%
  activation at 3.33 µM: 1.6%
  activation at 10 µM: 22.8%
[1]; read-out: Peak Number—2D Mean
  activation at 0.37 µM: -29.4%
  activation at 1.11 µM: -3.5%
  activation at 3.33 µM: 9.9%
  activation at 10 µM: 5.8%
[1]; [4]
  activation at 0.37 µM: -4.1%
  activation at 1.11 µM: 9.3%
  activation at 3.33 µM: -14.1%
  activation at 10 µM: 9.8%
[1]; read-out: Peak width - 2D Mean
  activation at 0.37 µM: 16.1%
  activation at 1.11 µM: 33%
  activation at 3.33 µM: 3.7%
  activation at 10 µM: 11.5%
[1]; [5]
  activation at 0.37 µM: -17.2%
  activation at 1.11 µM: 8.2%
  activation at 3.33 µM: -26.1%
  activation at 10 µM: -13.2%
[1]; [6]
  Ca²⁺ Transient Peak Number (2D): ±
[2]; 0.37 µM
  Area under the curve - 3D Mean: 105.2 % change from baseline
  Peak Number—3D Mean: −14.9 % change from baseline
  Peak width - 3D Mean: −0.3 % change from baseline
  Peak-to-peak interval - 3D Mean: 7.6 % change from baseline
[2]; 1.11 µM
  Area under the curve - 3D Mean: 108.3 % change from baseline
  Peak Number—3D Mean: −13.0 % change from baseline
  Peak width - 3D Mean: 5.7 % change from baseline
  Peak-to-peak interval - 3D Mean: 20.3 % change from baseline
[2]; 3.33 µM
  Area under the curve - 3D Mean: 107.4 % change from baseline
  Peak Number—3D Mean: 5.8 % change from baseline
  Peak width - 3D Mean: 2.7 % change from baseline
  Peak-to-peak interval - 3D Mean: 12.1 % change from baseline
[2]; 10 µM
  Area under the curve - 3D Mean: 115.2 % change from baseline
  Peak Number—3D Mean: −5.8 % change from baseline
  Peak width - 3D Mean: 8.5 % change from baseline
  Peak-to-peak interval - 3D Mean: 9.4 % change from baseline
[2]; 3D-cultured
  effect on peak number of oscillations, in words: did not significantly change the peak number
[2]; [6]
  Ca²⁺ Transient Peak Number (3D): ±

## NCC(=O)O [glycine]
[1]
  effect on peak number / Ca2+ neuronal oscillations, in words: significantly reduced peak number
